Results published in patent publication US4006133A, “Aminoglycoside antibiotics” (Sankyo Company Limited, priority 1973, dated 1977).
≈ marks a conversion by molar mass, not a printed value. Where two headings read alike, the source gives them in different places.

How the values were obtained:
Format in all cases: cell-based
Proteus mirabilis 1306 = test: Minimum inhibitory concentration
Klebsiella 806 = test: Minimum inhibitory concentration
[1] = tested on: Pseudomonas aeruginosa Scr.; test: Minimum inhibitory concentration; conditions: read-out: Minimum inhibitory concentration
[2] = tested on: Bacillus subtilis PCI-219; test: Minimum inhibitory concentration
Proteus rettgeri 1601 = test: Minimum inhibitory concentration
[3] = tested on: Pseudomonas aeruginosa 1055; test: Minimum inhibitory concentration
Escherichia coli 665 = test: Minimum inhibitory concentration
[4] = tested on: Staphylococcus aureus 109; test: Minimum inhibitory concentration
[5] = tested on: Staphylococcus aureus 209 P; test: Minimum inhibitory concentration; conditions: read-out: Minimum inhibitory concentration
[6] = tested on: Pseudomonas aeruginosa 1100; test: Minimum inhibitory concentration
[7] = tested on: Pseudomonas aeruginosa 1080; test: Minimum inhibitory concentration
Proteus morganii 1512 = test: Minimum inhibitory concentration
Escherichia coli NIHJ = test: Minimum inhibitory concentration; conditions: read-out: Minimum inhibitory concentration
Proteus morganii 1501 = test: Minimum inhibitory concentration
[8] = tested on: butirosin-resistant as well as butirosin-sensitive strains; test: Antibacterial activity, butirosin-resistant and butirosin-sensitive strains
Bacillus anthracis = test: microbe, parasite or virus in culture; conditions: read-out: Minimum inhibitory concentration
Proteus mirabilis 1312 = test: Minimum inhibitory concentration
[9] = tested on: Staphylococcus epidermidis; test: Minimum inhibitory concentration; conditions: read-out: Minimum inhibitory concentration
Proteus vulgaris 1416 = test: Minimum inhibitory concentration
Proteus vulgaris 1404 = test: Minimum inhibitory concentration
Shigella flexneri 2a = test: Minimum inhibitory concentration; conditions: Hurt's infusion agar
[10] = tested on: Pseudomonas aeruginosa 1016; test: Minimum inhibitory concentration
[11] = tested on: Staphylococcus aureus 126; test: Minimum inhibitory concentration
Shigella sonnei = test: Minimum inhibitory concentration; conditions: Hurt's infusion agar
Salmonella enteritidis = test: Minimum inhibitory concentration; conditions: Salmonella enterica, read-out: Minimum inhibitory concentration
Escherichia coli 605 = test: Minimum inhibitory concentration
Salmonella typhi-murium = test: Minimum inhibitory concentration; conditions: read-out: Minimum inhibitory concentration
Klebsiella 813 = test: Minimum inhibitory concentration
[12] = tested on: Pseudomonas schuylkilliensis; test: Minimum inhibitory concentration; conditions: read-out: Minimum inhibitory concentration
Escherichia coli 620 = test: Minimum inhibitory concentration
[13] = tested on: Staphylococcus aureus 167; test: Minimum inhibitory concentration
Escherichia coli 704 = test: Minimum inhibitory concentration
[14] = tested on: Staphylococcus aureus 163; test: Minimum inhibitory concentration
Proteus rettgeri 1602 = test: Minimum inhibitory concentration

## NCC[C@H](O)C(=O)N[C@@H]1C[C@H](N)[C@@H](O[C@H]2O[C@H](CN)CC[C@H]2N)[C@H](O[C@@H]2O[C@H](CN)[C@H](O)[C@H]2O)[C@H]1O [ATBA, 5"-amino-3',4',5"-trideoxybutirosin A]
Proteus mirabilis 1306; Proteus mirabilis 1306, Hurt's infusion agar, read-out: Minimum inhibitory concentration
  MIC: 25 µg/mL (≈ 47.8 µM)
Klebsiella 806; Klebsiella 806, Hurt's infusion agar, read-out: Minimum inhibitory concentration
  MIC: 6.2 µg/mL (≈ 11.9 µM)
[1]; Pseudomonas aeruginosa Scr., Hurt's infusion agar
  MIC: 1.5 µg/mL (≈ 2.87 µM)
[2]; PCI219, Bacillus subtilis PCI-219, Hurt's infusion agar, read-out: Minimum inhibitory concentration
  MIC: 0.1 µg/mL (≈ 0.191 µM)
Proteus rettgeri 1601; Providencia rettgeri, Proteus rettgeri 1601, Hurt's infusion agar, read-out: Minimum inhibitory concentration
  MIC: 1.5 µg/mL (≈ 2.87 µM)
[3]; Pseudomonas aeruginosa 1055, Hurt's infusion agar, read-out: Minimum inhibitory concentration
  MIC: 6.2 µg/mL (≈ 11.9 µM)
Escherichia coli 665; Escherichia coli 665, Hurt's infusion agar, read-out: Minimum inhibitory concentration
  MIC: 12.5 µg/mL (≈ 23.9 µM)
[4]; Staphylococcus aureus 109, Hurt's infusion agar, read-out: Minimum inhibitory concentration
  MIC: 3.1 µg/mL (≈ 5.93 µM)
[5]; Staphylococcus aureus 209 P, Hurt's infusion agar
  MIC: 0.2 µg/mL (≈ 0.383 µM)
[6]; Pseudomonas aeruginosa 1100, Hurt's infusion agar, read-out: Minimum inhibitory concentration
  MIC: 25 µg/mL (≈ 47.8 µM)
[7]; Pseudomonas aeruginosa 1080, Hurt's infusion agar, read-out: Minimum inhibitory concentration
  MIC: 100 µg/mL (≈ 191 µM)
Proteus morganii 1512; Morganella morganii, Proteus morganii 1512, Hurt's infusion agar, read-out: Minimum inhibitory concentration
  MIC: 3.1 µg/mL (≈ 5.93 µM)
Escherichia coli NIHJ; Escherichia coli NIHJ, Hurt's infusion agar
  MIC: 3.1 µg/mL (≈ 5.93 µM)
Proteus morganii 1501; Morganella morganii, Proteus morganii 1501, Hurt's infusion agar, read-out: Minimum inhibitory concentration
  MIC: 1.5 µg/mL (≈ 2.87 µM)
[8]
  antibacterial activity (in words): extremely active
Bacillus anthracis
  MIC: 0.1 µg/mL (≈ 0.191 µM)
Proteus mirabilis 1312; Proteus mirabilis 1312, Hurt's infusion agar, read-out: Minimum inhibitory concentration
  MIC: 50 µg/mL (≈ 95.7 µM)
[9]; Hurt's infusion agar
  MIC: 1.5 µg/mL (≈ 2.87 µM)
Proteus vulgaris 1416; Proteus vulgaris 1416, Hurt's infusion agar, read-out: Minimum inhibitory concentration
  MIC: 50 µg/mL (≈ 95.7 µM)
Proteus vulgaris 1404; Proteus vulgaris 1404, Hurt's infusion agar, read-out: Minimum inhibitory concentration
  MIC: 6.2 µg/mL (≈ 11.9 µM)
Shigella flexneri 2a
  MIC: 3.1 µg/mL (≈ 5.93 µM)
[10]; Pseudomonas aeruginosa 1016, Hurt's infusion agar, read-out: Minimum inhibitory concentration
  MIC: 3.1 µg/mL (≈ 5.93 µM)
[11]; Staphylococcus aureus 126, Hurt's infusion agar, read-out: Minimum inhibitory concentration
  MIC: 1.5 µg/mL (≈ 2.87 µM)
Shigella sonnei
  MIC: 3.1 µg/mL (≈ 5.93 µM)
Salmonella enteritidis; Salmonella enteritidis, Hurt's infusion agar
  MIC: 6.2 µg/mL (≈ 11.9 µM)
Escherichia coli 605; Escherichia coli 605, Hurt's infusion agar, read-out: Minimum inhibitory concentration
  MIC: 25 µg/mL (≈ 47.8 µM)
Salmonella typhi-murium
  MIC: 6.2 µg/mL (≈ 11.9 µM)
Klebsiella 813; Klebsiella 813, Hurt's infusion agar, read-out: Minimum inhibitory concentration
  MIC: 25 µg/mL (≈ 47.8 µM)
[12]; Pseudomonas schuylkilliensis, Hurt's infusion agar
  MIC: 6.2 µg/mL (≈ 11.9 µM)
Escherichia coli 620; Escherichia coli 620, Hurt's infusion agar, read-out: Minimum inhibitory concentration
  MIC: 12.5 µg/mL (≈ 23.9 µM)
[13]; Staphylococcus aureus 167, Hurt's infusion agar, read-out: Minimum inhibitory concentration
  MIC: 0.1 µg/mL (≈ 0.191 µM)
Escherichia coli 704; Escherichia coli 704, Hurt's infusion agar, read-out: Minimum inhibitory concentration
  MIC: 6.2 µg/mL (≈ 11.9 µM)
[14]; Staphylococcus aureus 163, Hurt's infusion agar, read-out: Minimum inhibitory concentration
  MIC: 25 µg/mL (≈ 47.8 µM)
Proteus rettgeri 1602; Providencia rettgeri, Proteus rettgeri 1602, Hurt's infusion agar, read-out: Minimum inhibitory concentration
  MIC: 12.5 µg/mL (≈ 23.9 µM)

## NCC[C@H](O)C(=O)N[C@@H]1C[C@H](N)[C@@H](O[C@H]2O[C@H](CN)[C@@H](O)[C@H](O)[C@H]2N)[C@H](O[C@@H]2O[C@H](CO)[C@H](O)[C@H]2O)[C@H]1O [BA, butirosin A, reference compound]
Proteus mirabilis 1306; Proteus mirabilis, 1306, read-out: Minimum inhibitory concentration
  MIC: 50 µg/mL (≈ 90 µM)
Klebsiella 806; Klebsiella, 806, read-out: Minimum inhibitory concentration
  MIC: 3.1 µg/mL (≈ 5.58 µM)
[1]; Pseudomonas aeruginosa
  MIC: 12.5 µg/mL (≈ 22.5 µM)
[2]; Bacillus subtilis, PCI219, read-out: Minimum inhibitory concentration
  MIC: 0.4 µg/mL (≈ 0.72 µM)
Proteus rettgeri 1601; Providencia rettgeri, 1601, read-out: Minimum inhibitory concentration
  MIC: 6.2 µg/mL (≈ 11.2 µM)
[3]; Pseudomonas aeruginosa, 1055, read-out: Minimum inhibitory concentration
  MIC: > 200 µg/mL
Escherichia coli 665; Escherichia coli, 665, read-out: Minimum inhibitory concentration
  MIC: > 200 µg/mL
[4]; Staphylococcus aureus, 109, read-out: Minimum inhibitory concentration
  MIC: > 200 µg/mL
[5]; Staphylococcus aureus, 209P
  MIC: 1.5 µg/mL (≈ 2.7 µM)
[6]; Pseudomonas aeruginosa, 1100, read-out: Minimum inhibitory concentration
  MIC: > 200 µg/mL
[7]; Pseudomonas aeruginosa, 1080, read-out: Minimum inhibitory concentration
  MIC: > 200 µg/mL
Proteus morganii 1512; Morganella morganii, 1512, read-out: Minimum inhibitory concentration
  MIC: 25 µg/mL (≈ 45 µM)
Escherichia coli NIHJ; Escherichia coli
  MIC: 3.1 µg/mL (≈ 5.58 µM)
Proteus morganii 1501; Morganella morganii, 1501, read-out: Minimum inhibitory concentration
  MIC: 3.1 µg/mL (≈ 5.58 µM)
Bacillus anthracis
  MIC: 0.8 µg/mL (≈ 1.44 µM)
Proteus mirabilis 1312; Proteus mirabilis, 1312, read-out: Minimum inhibitory concentration
  MIC: 100 µg/mL (≈ 180 µM)
[9]
  MIC: 0.4 µg/mL (≈ 0.72 µM)
Proteus vulgaris 1416; Proteus vulgaris, 1416, read-out: Minimum inhibitory concentration
  MIC: 100 µg/mL (≈ 180 µM)
Proteus vulgaris 1404; Proteus vulgaris, 1404, read-out: Minimum inhibitory concentration
  MIC: 25 µg/mL (≈ 45 µM)
Shigella flexneri 2a
  MIC: 6.2 µg/mL (≈ 11.2 µM)
[10]; Pseudomonas aeruginosa, 1016, read-out: Minimum inhibitory concentration
  MIC: > 200 µg/mL
[11]; Staphylococcus aureus, 126, read-out: Minimum inhibitory concentration
  MIC: 6.5 µg/mL (≈ 11.7 µM)
Shigella sonnei
  MIC: 6.2 µg/mL (≈ 11.2 µM)
Salmonella enteritidis; ENTERITIDIS
  MIC: 12.5 µg/mL (≈ 22.5 µM)
Escherichia coli 605; Escherichia coli, 605, read-out: Minimum inhibitory concentration
  MIC: > 200 µg/mL
Salmonella typhi-murium; Salmonella typhi-murium, Hurt's infusion agar
  MIC: 12.5 µg/mL (≈ 22.5 µM)
Klebsiella 813; Klebsiella, 813, read-out: Minimum inhibitory concentration
  MIC: 50 µg/mL (≈ 90 µM)
[12]; Pseudomonas
  MIC: 25 µg/mL (≈ 45 µM)
Escherichia coli 620; Escherichia coli, 620, read-out: Minimum inhibitory concentration
  MIC: > 200 µg/mL
[13]; Staphylococcus aureus, 167, read-out: Minimum inhibitory concentration
  MIC: 200 µg/mL (≈ 360 µM)
Escherichia coli 704; Escherichia coli, 704, read-out: Minimum inhibitory concentration
  MIC: 12.5 µg/mL (≈ 22.5 µM)
[14]; Staphylococcus aureus, 163, read-out: Minimum inhibitory concentration
  MIC: > 200 µg/mL
Proteus rettgeri 1602; Providencia rettgeri, 1602, read-out: Minimum inhibitory concentration
  MIC: > 200 µg/mL
